The record followed here is US10654834B2 (Venenum Biodesign, LLC, priority 2016, dated 2020).

Data set [1] can be described thus: Pharmacokinetic profile in mice after oral gavage. The class given is in vivo, mouse. To be noted: mouse; fasted male Hilltop mice, 10 mg/kg oral gavage, plasma; read-out: Cmax. A digest of the protocol: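 Plasma exposure (Cmax, AUC) by non-compartmental analysis of LC-MS/MS data, orbital blood taken at 0, 0.25, 0.5, 1, 2 and 4 h, each value averaging three mice. Dosing: 10 mg/kg oral gavage to overnight-fasted male Hilltop mice (8 weeks), vehicle PEG400/CMC/Tween-80.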

The next data set has as its target T1, mouse TGR5 receptor (Mus musculus, UniProt Q80SS6).
T1 construct: host or cells: HEK293-EBNA (293 c18, ATCC CRL10852)
T1 sequence (Q80SS6 1-329): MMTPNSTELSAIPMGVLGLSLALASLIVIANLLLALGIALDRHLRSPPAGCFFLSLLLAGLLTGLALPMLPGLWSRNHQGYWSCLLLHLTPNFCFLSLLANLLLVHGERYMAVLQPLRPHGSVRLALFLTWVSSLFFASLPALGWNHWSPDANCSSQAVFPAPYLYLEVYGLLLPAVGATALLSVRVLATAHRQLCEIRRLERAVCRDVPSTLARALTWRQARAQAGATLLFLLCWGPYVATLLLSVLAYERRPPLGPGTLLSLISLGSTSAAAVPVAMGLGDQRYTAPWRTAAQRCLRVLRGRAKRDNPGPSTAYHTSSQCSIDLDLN
The data set is described as follows: Mouse TGR5 HTRF cAMP production assay (HEK293-EBNA cells, Cisbio cAMP HiRange kit). In kind it is cell-based. The note with it: HEK293-EBNA cells overexpressing mouse TGR5, HTRF cAMP assay. A digest of the protocol: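 cAMP accumulation was read by competitive HTRF after 1 h room-temperature compound treatment, with a further 1 h conjugate incubation. Cells were mouse TGR5-overexpressing HEK293-EBNA in serum-free DMEM plus 500 μM IBMX. Compounds ran as 12-point half-log series in duplicate, and EC50 values were reported.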
(Time-resolved FRET reads energy transfer from a long-lived donor to a nearby acceptor.)

Some results are limits rather than exact numbers.

The Cmax is the maximum level reached in the sampled fluid or tissue. What is called EC50 is the midpoint of the concentration-response curve. For `N#Cc1ccc(CCNC(=O)[C@@H]2CCCN2c2cc(N3CCC(CCCC(=O)N[C@@H](CCCNC(=N)N)C(=O)N[C@@H](CCCNC(=N)N)C(=O)O)CC3)cc(C(F)(F)F)n2)cc1` [Compound 202, (S)-2-((S)-2-(4-(1-(2-((S)-2-((4-cyanophenethyl)carbamoyl)pyrrolidin-1-yl)-6-(trifluoromethyl)pyridin-4-yl)piperidin-4-yl)butanamido)-5-guanidinopentanamido)-5-guanidinopentanoic acid], in data set [1], the peak concentration (Cmax) is below 0.1 ng/mL. The compound also gave an EC50 at mouse TGR5 receptor below 100 nM.

Turning to `N#Cc1ccc(CCNC(=O)[C@@H]2CCCN2c2cc(N3CCC(CCCC(=O)NCCCC[C@H](NC(=N)N)C(=O)O)CC3)nc(C(F)(F)F)n2)cc1` [Compound 129, (S)-6-(4-(1-(6-((S)-2-((4-cyanophenethyl)carbamoyl)pyrrolidin-1-yl)-2-(trifluoromethyl)pyrimidin-4-yl)piperidin-4-yl)butanamido)-2-guanidinohexanoic acid], the maximum concentration (Cmax) in data set [1] was 0.6 ng/mL. Further, on mouse TGR5 receptor, the concentration giving a half-maximal response (EC50) is below 100 nM.

For `N#Cc1ccc(CCNC(=O)[C@@H]2CCCN2c2cc(N3CCC(CCNC(=O)NCP(=O)(O)O)CC3)nc(C(F)(F)F)n2)cc1` [Compound 372, (S)-((3-(2-(1-(6-(2-((4-cyanophenethyl)carbamoyl)pyrrolidin-1-yl)-2-(trifluoromethyl)pyrimidin-4-yl)piperidin-4-yl)ethyl)ureido)methyl)phosphonic acid], the Cmax in data set [1] was 105 ng/mL. The EC50 at mouse TGR5 receptor was below 100 nM.

As to `N=C(N)N[C@@H](CCC(=O)NCCCC1CCN(c2cc(N3CCC[C@H]3C(=O)NCCc3ccc(C(F)(F)F)cc3)nc(C(F)(F)F)n2)CC1)C(=O)O` [Compound 133, (S)-2-guanidino-5-oxo-5-((3-(1-(2-(trifluoromethyl)-6-((S)-2-((4-(trifluoromethyl)phenethyl)carbamoyl)pyrrolidin-1-yl)pyrimidin-4-yl)piperidin-4-yl)propyl)amino)pentanoic acid], the Cmax in data set [1] was 4.1 ng/mL. The EC50 on mouse TGR5 receptor is below 100 nM.

Take `COc1cc(C(F)(F)F)ccc1CCNC(=O)[C@@H]1CCN1c1cc(N2CCC(CCC(=O)NCCS(=O)(=O)O)CC2)nc(C(F)(F)F)n1` [Compound 259]: the Cmax in data set [1] came to 27 ng/mL. At mouse TGR5 receptor, the EC50 was below 100 nM.

In the case of `N#Cc1ccc(CCNC(=O)[C@@H]2CCCN2c2cc(N3CCC(CCCC(=O)NCCNc4ncc(C(=O)NCCS(=O)(=O)O)cn4)CC3)nc(C(F)(F)F)n2)cc1` [Compound 112, (S)-2-(2-((2-(4-(1-(6-(2-((4-cyanophenethyl)carbamoyl)pyrrolidin-1-yl)-2-(trifluoromethyl)pyrimidin-4-yl)piperidin-4-yl)butanamido)ethyl)amino)-pyrimidine-5-carboxamido)ethanesulfonic acid], the Cmax in data set [1] amounted to 1.1 ng/mL. On mouse TGR5 receptor, this compound showed an EC50 below 100 nM.

In the case of `N#Cc1ccc(CCNC(=O)[C@@H]2CCN2c2cc(N3CCC(CCNC(=O)NCCNC(=N)N)CC3)nc(C(F)(F)F)n2)cc1` [Compound 286, (S)-N-(4-cyanophenethyl)-1-(6-(4-(2-(3-(2-guanidinoethyl)-ureido)ethyl)piperidin-1-yl)-2-(trifluoromethyl)pyrimidin-4-yl)azetidine-2-carboxamide], the Cmax in data set [1] was found to be 5.2 ng/mL. In addition, the EC50 on mouse TGR5 receptor is below 100 nM.

Regarding `N#Cc1ccc(CCNC(=O)[C@@H]2CCN2c2cc(N3CCC(CCO)CC3)nc(C(F)(F)F)n2)cc1` [Compound 223, (S)-N-(4-cyanophenethyl)-1-(6-(4-(2-hydroxyethyl)piperidin-1-yl)-2-(trifluoromethyl)pyrimidin-4-yl)azetidine-2-carboxamide], in data set [1], the Cmax was determined as 44 ng/mL. Also, on mouse TGR5 receptor, the EC50 is below 100 nM.

On to `N#Cc1ccc(CCNC(=O)[C@@H]2CCCN2c2cc(N3CCC(CCNC(=N)N)CC3)nc(C(F)(F)F)n2)cc1` [Compound 126, (S)—N-(4-cyanophenethyl)-1-(6-(4-(2-guanidinoethyl)piperidin-1-yl)-2-(trifluoromethyl)pyrimidin-4-yl)pyrrolidine-2-carboxamide], for which the Cmax in data set [1] came out at 2 ng/mL. In addition, the EC50 at mouse TGR5 receptor was below 100 nM.

For `N#CCCN1CCN(c2cc(N3CCC[C@H]3C(=O)NCCc3ccc(C#N)cc3)nc(C(F)(F)F)n2)CC1` [Compound 32], the Cmax in data set [1] was 1350 ng/mL. This compound also registered an EC50 at mouse TGR5 receptor below 100 nM.

Regarding `N#Cc1ccc(CCNC(=O)[C@@H]2CCN2c2cc(N3CCC(CCCC(=O)NC[C@@H](O)[C@H](O)[C@@H](O)[C@@H](O)CO)CC3)nc(C(F)(F)F)n2)cc1` [Compound 260, (S)—N-(4-cyanophenethyl)-1-(6-(4-(4-oxo-4-(((2R,3S,4S,5S)-2,3,4,5,6-pentahydroxyhexyl)amino)butyl)piperidin-1-yl)-2-(trifluoromethyl)pyrimidin-4-yl)azetidine-2-carboxamide], the Cmax in data set [1] is 3.2 ng/mL. Also, the EC50 at mouse TGR5 receptor is below 100 nM.

For the compound `N#Cc1ccc(CCNC(=O)[C@@H]2CCN2c2cc(N3CCC(CCNC(=O)NCCS(N)(=O)=O)CC3)nc(C(F)(F)F)n2)cc1` [Compound 269, (S)—N-(4-cyanophenethyl)-1-(6-(4-(2-(3-(2-sulfamoylethyl)ureido)ethyl)piperidin-1-yl)-2-(trifluoromethyl)pyrimidin-4-yl)azetidine-2-carboxamide], the Cmax in data set [1] is 3.2 ng/mL. This compound registered an EC50 at mouse TGR5 receptor below 100 nM.

In the case of `N#Cc1ccc(CCNC(=O)[C@@H]2CCCN2c2cc(N3CCC(CCCC(=O)NCCC(=O)NC(CO)(CO)CO)CC3)nc(C(F)(F)F)n2)cc1` [Compound 109, (S)—N-(4-cyanophenethyl)-1-(6-(4-(4-((3-((1,3-dihydroxy-2-(hydroxymethyl)propan-2-yl)amino)-3-oxopropyl)amino)-4-oxobutyl)piperidin-1-yl)-2-(trifluoromethyl)-pyrimidin-4-yl)pyrrolidine-2-carboxamide], the Cmax in data set [1] is 3.2 ng/mL. Also, the EC50 at mouse TGR5 receptor was below 100 nM.

Consider `COc1cc(C(F)(F)F)ccc1CCNC(=O)[C@@H]1CCCN1c1cc(N2CCC(CCCC(=O)O)CC2)nc(C(F)(F)F)n1` [Compound 34], for which the Cmax in data set [1] was found to be 31 ng/mL. In addition, the EC50 on mouse TGR5 receptor was below 100 nM.

`O=C(O)CCCC1CCN(c2cc(N3CCC[C@@H](C(=O)NCCc4ccc(C(F)(F)F)cc4)C3)nc(C(F)(F)F)n2)CC1` [Compound 330, (R)-4-(1-(2-(trifluoromethyl)-6-(3-((4-(trifluoromethyl)phenethyl)carbamoyl)piperidin-1-yl)pyrimidin-4-yl)piperidin-4-yl)butanoic acid]: the Cmax in data set [1] turned out to be 20 ng/mL. The same compound came in with an EC50 on mouse TGR5 receptor below 100 nM.

`N#Cc1ccc(CCNC(=O)[C@@H]2CCCN2c2cc(-c3ccc(CO)cc3)cc(C(F)(F)F)n2)cc1` [Compound 204, (S)—N-(4-cyanophenethyl)-1-(4-(4-(hydroxymethyl)phenyl)-6-(trifluoromethyl)pyridin-2-yl)pyrrolidine-2-carboxamide]: the Cmax in data set [1] is 4.4 ng/mL. On mouse TGR5 receptor, this compound gave an EC50 below 100 nM.

For the compound `N#Cc1ccc(CCNC(=O)[C@@H]2CCCN2c2cc(N3CCC(CCC(=O)O)CC3)nc(C(F)(F)F)n2)cc1` [Compound 28], the Cmax in data set [1] came out at 75 ng/mL. For the same compound, the EC50 on mouse TGR5 receptor was below 100 nM.

For the compound `N#Cc1ccc(CCNC(=O)[C@@H]2CCN2c2cc(N3CCC(CCNC(=O)NCCOCCNC(=N)N)CC3)nc(C(F)(F)F)n2)cc1` [Compound 287, (S)-1-(6-(4-(1-amino-1-imino-9-oxo-5-oxa-2,8,10-triazadodecan-12-yl)piperidin-1-yl)-2-(trifluoromethyl)pyrimidin-4-yl)-N-(4-cyanophenethyl)azetidine-2-carboxamid], in data set [1], the Cmax is 5 ng/mL. The same compound returned an EC50 on mouse TGR5 receptor below 100 nM.
